# Experimental data published in patent publication US11267800B2, “Cyclohexyl acid triazole azines as LPA antagonists” (BRISTOL-MYERS SQUIBB COMPANY, priority 2017, dated 2022).
# Molecular target: T1, human LPA1 (Homo sapiens, UniProt Q92633)
# T1 construct: expressed in transfected cells; host or cells: Chinese hamster ovary (CHO) cells
# Test: LPA1 functional antagonist assay (calcium flux)
# Type: cell-based
# Conditions: CHO cells overexpressing human LPA1; inhibition of calcium flux induced by 10 nM LPA; read-out: hLPA1 IC50
# Outline: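 IC50 values come from 4-parameter logistic fits and mark 50% block of the calcium flux evoked by 10 nM LPA. Human LPA1-overexpressing CHO cells were calcium-dye loaded at 37 °C, then given test compound (0.08 nM–5 μM, 0.5% DMSO, HEPES-buffered HBSS with 0.1% fatty-acid-free BSA) for 20 min at room temperature before agonist.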
# T1 sequence (Q92633 whole entry): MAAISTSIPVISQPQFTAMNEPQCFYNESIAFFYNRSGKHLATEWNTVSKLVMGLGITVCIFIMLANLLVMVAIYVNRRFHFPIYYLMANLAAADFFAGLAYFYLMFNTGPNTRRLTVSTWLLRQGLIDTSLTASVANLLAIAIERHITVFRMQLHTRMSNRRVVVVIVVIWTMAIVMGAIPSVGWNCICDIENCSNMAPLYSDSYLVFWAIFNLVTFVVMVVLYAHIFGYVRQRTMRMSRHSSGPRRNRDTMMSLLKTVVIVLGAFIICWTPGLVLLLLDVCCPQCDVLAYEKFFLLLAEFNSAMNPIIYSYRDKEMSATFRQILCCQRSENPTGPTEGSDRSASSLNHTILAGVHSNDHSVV
row,SMILES,IC50 [nM]
1,"CCCc1ncnc(NCCc2c(-c3ccc(O[C@H]4CCC[C@H](C(=O)O)C4)c(C)n3)nnn2C)n1 [Example 213, (1S,3S)-3-((2-Methyl-6-(1-methyl-5-(2-((4-propyl-1,3,5-triazin-2-yl)amino)ethyl)-1H-1,2,3-triazol-4-yl)pyridin-3-yl)oxy)cyclohexane-1-carboxylic acid]",1260
2,"Cc1nc(-c2nnn(C)c2CNc2nnc(Cl)cc2C2CC2)ccc1O[C@H]1CCC[C@H](C(=O)O)C1 [Example 216, (1S,3S)-3-((6-(5-(((6-Chloro-4-cyclopropylpyridazin-3-yl)amino)methyl)-1-methyl-1H-1,2,3-triazol-4-yl)-2-methylpyridin-3-yl)oxy) cyclohexane-1-carboxylic acid]",379
3,"Cc1nc(-c2nnn(C)c2CNc2nnccc2OC2CC2)ccc1O[C@H]1CCC[C@H](C(=O)O)C1 [Example 218, (1S,3S)-3-((6-(5-(((4-Cyclopropoxy-pyridazin-3-yl)amino)methyl)-1-methyl-1H-1,2,3-triazol-4-yl)-2-methylpyridin-3-yl)oxy)cyclohexane-1-carboxylic acid]",213
4,"Cc1nc(-c2nnn(C)c2CNc2cc(OC3CC3)cnn2)ccc1O[C@H]1CCC[C@H](C(=O)O)C1 [Example 219, (1S,3S)-3-((6-(5-(((5-Cyclopropoxy-pyridazin-3-yl)amino)methyl)-1-methyl-1H-1,2,3-triazol-4-yl)-2-methylpyridin-3-yl)oxy)cyclohexane-1-carboxylic acid]",138
5,"Cn1nnc(-c2ccc(O[C@H]3CCC[C@H](C(=O)O)C3)cn2)c1CNc1ncnc(C2CC2)n1 [Example 223, (1S,3S)-3-((6-(5-(((4-cyclopropyl-1,3,5-triazin-2-yl)amino)methyl)-1-methyl-1H-1,2,3-triazol-4-yl)pyridin-3-yl)oxy)cyclohexane-1-carboxylic acid]",211
6,"CCc1ncnc(NCc2c(-c3ccc(O[C@H]4CCC[C@H](C(=O)O)C4)cn3)nnn2C)n1 [Example 224, (1S,3S)-3-((6-(5-(((4-ethyl-1,3,5-triazin-2-yl)amino)methyl)-1-methyl-1H-1,2,3-triazol-4-yl)pyridin-3-yl)oxy) cyclohexane-1-carboxylic acid]",813
7,"CCc1nc(CC)nc(NCc2c(-c3ccc(O[C@H]4CCC[C@H](C(=O)O)C4)cn3)nnn2C)n1 [Example 225, (1S,3S)-3-((6-(5-(((4,6-diethyl-1,3,5-triazin-2-yl)amino)methyl)-1-methyl-1H-1,2,3-triazol-4-yl)pyridin-3-yl)oxy)cyclohexane-1-carboxylic acid]",789
8,"Cc1nc(-c2nnn(C)c2Nc2cccc(Cc3ccccc3)n2)ccc1O[C@H]1CCC[C@H](C(=O)O)C1 [Example 226, (1S,3S)-3-((6-(5-((6-benzylpyridin-2-yl)amino)-1-methyl-1H-1,2,3-triazol-4-yl)-2-methylpyridin-3-yl)oxy)cyclohexane-1-carboxylicacid]",19
9,"Cc1nc(-c2nnn(C)c2Nc2ccnc(OC3CC3)n2)ccc1O[C@H]1CCC[C@H](C(=O)O)C1 [Example 228, (1S,3S)-3-((6-(5-((2-cyclopropoxypyrimidin-4-yl)amino)-1-methyl-1H-1,2,3-triazol-4-yl)-2-methylpyridin-3-yl)oxy)cyclohexane-1-carboxylic acid]",215
10,"CCOc1ccnc(Nc2c(-c3ccc(O[C@H]4CCC[C@H](C(=O)O)C4)c(C)n3)nnn2C)n1 [Example 229, (1S,3S)-3-((6-(5-((4-ethoxypyrimidin-2-yl)amino)-1-methyl-1H-1,2,3-triazol-4-yl)-2-methylpyridin-3-yl)oxy)cyclohexane-1-carboxylic acid]",165
11,"CCCc1cccc(Nc2c(-c3ccc(O[C@H]4CCC[C@H](C(=O)O)C4)c(C)n3)nnn2C)n1 [Example 230, (1S,3S)-3-((2-methyl-6-(1-methyl-5-((6-propylpyridin-2-yl)amino)-1H-1,2,3-triazol-4-yl)pyridin-3-yl)oxy) cyclohexane-1-carboxylic acid]",11
12,"Cc1nc(-c2nnn(C)c2Nc2cccc(C3CC3)n2)ccc1O[C@H]1CCC[C@H](C(=O)O)C1 [Example 231, (1S,3S)-3-((6-(5-((6-cyclopropyl-pyridin-2-yl)amino)-1-methyl-1H-1,2,3-triazol-4-yl)-2-methylpyridin-3-yl)oxy)cyclohexane-1-carboxylic acid]",21

# More lines, now with the values ahead:
row,IC50 [nM],SMILES
1,93,"CCCc1cnnc(NCc2c(-c3ccc(O[C@H]4CCC[C@H](C(=O)O)C4)c(C)n3)nnn2C)c1 [Example 212, (1S,3S)-3-((2-Methyl-6-(1-methyl-5-(((5-propylpyridazin-3-yl)amino)methyl)-1H-1,2,3-triazol-4-yl)pyridin-3-yl)oxy)cyclohexane-1-carboxylic acid]"
2,297,"Cc1nc(-c2nnn(C)c2CNc2cc(-c3ccccc3)cnn2)ccc1O[C@H]1CCC[C@H](C(=O)O)C1 [Example 214, (1S,3S)-3-((2-Methyl-6-(1-methyl-5-(((5-phenylpyridazin-3-yl)amino)methyl)-1H-1,2,3-triazol-4-yl)pyridin-3-yl)oxy)cyclohexane-1-carboxylic acid]"
3,278,"Cc1nc(-c2nnn(C)c2CNc2cc(C3CC3)cnn2)ccc1O[C@H]1CCC[C@H](C(=O)O)C1 [Example 215, (1S,3S)-3-((6-(5-(((5-Cyclopropyl-pyridazin-3-yl)amino)methyl)-1-methyl-1H-1,2,3-triazol-4-yl)-2-methylpyridin-3-yl)oxy)cyclohexane-1-carboxylic acid]"
4,97,"Cc1nc(-c2nnn(C)c2CNc2cc(C(C)C)cnn2)ccc1O[C@H]1CCC[C@H](C(=O)O)C1 [Example 217, (1S,3S)-3-((6-(5-(((5-Isopropyl-pyridazin-3-yl)amino)methyl)-1-methyl-1H-1,2,3-triazol-4-yl)-2-methylpyridin-3-yl)oxy)cyclohexane-1-carboxylic acid]"
5,30,"Cc1nc(-c2nnn(C)c2CNc2cncc(-c3ccccc3)n2)ccc1O[C@H]1CCC[C@H](C(=O)O)C1 [Example 220, (1S,3S)-3-((2-Methyl-6-(1-methyl-5-(((6-phenylpyrazin-2-yl)amino)methyl)-1H-1,2,3-triazol-4-yl)pyridin-3-yl)oxy)cyclohexane-1-carboxylic acid]"
6,63,"CCCc1ncnc(NCc2c(-c3ccc(O[C@H]4CCC[C@H](C(=O)O)C4)cn3)nnn2C)n1 [Example 221, (1S,3S)-3-((6-(1-methyl-5-(((4-propyl-1,3,5-triazin-2-yl)amino)methyl)-1H-1,2,3-triazol-4-yl)pyridin-3-yl)oxy) cyclohexane-1-carboxylic acid]"
7,68,"CCCCc1ncnc(NCc2c(-c3ccc(O[C@H]4CCC[C@H](C(=O)O)C4)cn3)nnn2C)n1 [Example 222, (1S,3S)-3-((6-(5-(((4-butyl-1,3,5-triazin-2-yl)amino)methyl)-1-methyl-1H-1,2,3-triazol-4-yl)pyridin-3-yl)oxy)cyclohexane-1-carboxylic acid]"
8,215,"Cc1nc(-c2nnn(C)c2Nc2nccc(OC3CC3)n2)ccc1O[C@H]1CCC[C@H](C(=O)O)C1 [Example 227, (1S,3S)-3-((6-(5-((4-cyclopropoxypyrimidin-2-yl)amino)-1-methyl-1H-1,2,3-triazol-4-yl)-2-methylpyridin-3-yl)oxy)cyclohexane-1-carboxylic acid]"
